Read-outs that look alike come from different tables or passages of the source.
Legend:
[1] = standard compounds of the interpolation method; cited from earlier work
purified human BChE [2] = molecular target: T1, purified human BChE (Homo sapiens, UniProt P06276); assay: biochemical; format: biochemical
T1 construct: possibly also a gift of Dr Florian Nachon (the sentence is ambiguous)
In short: (§1)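 Modified Ellman assay with acetylthiocholine and DTNB in 0.1 M sodium phosphate pH 7.4 (enzymes diluted with 0.1% BSA), ≤0.2% DMSO, 25 °C. At least three inhibitor concentrations per substrate level; Ki,app from Hunter–Downs equation, Ki from y-intercept and inhibition type from Ki,app vs [S].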

recombinant human AChE = molecular target: T2, recombinant human AChE (Homo sapiens, UniProt P22303); assay: biochemical; format: biochemical; conditions: for IS: IS = Ki(BChE)/Ki(AChE), IS > 1 selective to AChE
T2 construct: gift of Dr Florian Nachon (Armed Forces Biomedical Research Institute, Brétigny-sur-Orge, France)
In short: as §1

[3] = Ferric reducing antioxidant power (FRAP) assay; conditions: mean ± standard error of three experiments;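 further: expressed as µM Fe2+ equivalents from an FeSO4·7H2O standard curve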
In short: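 Ferric-TPTZ reduction measured by absorbance at 593 nm after 60 min at 37 °C in pH 3.6 acetate-buffered TPTZ/FeCl3 reagent, with test compounds at 10 and 100 µM. FRAP values calculated from an Fe2SO4·7H2O standard curve. Data from three independent experiments.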

[4] = Reverse-phase thin-layer chromatographic lipophilicity (RF, RM0); format: physicochemical; conditions: for RM0: intercept of RM = RM0 + bC; for b: slope of RM = RM0 + bC; for RF, Methanol/Water/Hydrochloric acid (conc.), mobile phase I / RF, Dioxane/Water/Hydrochloric acid (conc.), mobile phase II / RF, Methanol/Water/Hydrochloric acid (conc.), mobile phase II / RF, Acetone/Water/Hydrochloric acid (conc.), mobile phase III / RF, Dioxane/Water/Hydrochloric acid (conc.), mobile phase III / RF, Methanol/Water/Hydrochloric acid (conc.), mobile phase III / RF, Dioxane/Water/Hydrochloric acid (conc.), mobile phase IV / RF, Acetone/Water/Hydrochloric acid (conc.), mobile phase IV / RF, Methanol/Water/Hydrochloric acid (conc.), mobile phase IV / RF, Acetone/Water/Hydrochloric acid (conc.), mobile phase IX / RF, Methanol/Water/Hydrochloric acid (conc.), mobile phase IX / RF, Dioxane/Water/Hydrochloric acid (conc.), mobile phase V / RF, Acetone/Water/Hydrochloric acid (conc.), mobile phase V / RF, Methanol/Water/Hydrochloric acid (conc.), mobile phase V / RF, Dioxane/Water/Hydrochloric acid (conc.), mobile phase VI / RF, Acetone/Water/Hydrochloric acid (conc.), mobile phase VI / RF, Methanol/Water/Hydrochloric acid (conc.), mobile phase VI / RF, Acetone/Water/Hydrochloric acid (conc.), mobile phase VII / RF, Methanol/Water/Hydrochloric acid (conc.), mobile phase VII / RF, Acetone/Water/Hydrochloric acid (conc.), mobile phase VIII / RF, Methanol/Water/Hydrochloric acid (conc.), mobile phase VIII: RP-18 silica; for RF, Methanol/Water/Hydrochloric acid (conc.), mobile phase I: I = 90%MeOH/5%H2O/5%HCl; for RF, Dioxane/Water/Hydrochloric acid (conc.), mobile phase II: II = 80%Dioxane/15%H2O/5%HCl; for RF, Methanol/Water/Hydrochloric acid (conc.), mobile phase II: II = 85%MeOH/10%H2O/5%HCl; for RF, Acetone/Water/Hydrochloric acid (conc.), mobile phase III: III = 70%AC/25%H2O/5%HCl; for RF, Dioxane/Water/Hydrochloric acid (conc.), mobile phase III: III = 70%Dioxane/25%H2O/5%HCl; for RF, Methanol/Water/Hydrochloric acid (conc.), mobile phase III: III = 80%MeOH/15%H2O/5%HCl; for RF, Dioxane/Water/Hydrochloric acid (conc.), mobile phase IV: IV = 60%Dioxane/35%H2O/5%HCl; for RF, Acetone/Water/Hydrochloric acid (conc.), mobile phase IV: IV = 65%AC/30%H2O/5%HCl; for RF, Methanol/Water/Hydrochloric acid (conc.), mobile phase IV: IV = 75%MeOH/20%H2O/5%HCl; for RF, Acetone/Water/Hydrochloric acid (conc.), mobile phase IX: IX = 40%AC/55%H2O/5%HCl; for RF, Methanol/Water/Hydrochloric acid (conc.), mobile phase IX: IX = 50%MeOH/45%H2O/5%HCl; for RF, Dioxane/Water/Hydrochloric acid (conc.), mobile phase V: V = 50%Dioxane/45%H2O/5%HCl; for RF, Acetone/Water/Hydrochloric acid (conc.), mobile phase V: V = 60%AC/35%H2O/5%HCl; for RF, Methanol/Water/Hydrochloric acid (conc.), mobile phase V: V = 70%MeOH/25%H2O/5%HCl; for RF, Dioxane/Water/Hydrochloric acid (conc.), mobile phase VI: VI = 40%Dioxane/55%H2O/5%HCl; for RF, Acetone/Water/Hydrochloric acid (conc.), mobile phase VI: VI = 55%AC/40%H2O/5%HCl; for RF, Methanol/Water/Hydrochloric acid (conc.), mobile phase VI: VI = 65%MeOH/30%H2O/5%HCl; for RF, Acetone/Water/Hydrochloric acid (conc.), mobile phase VII: VII = 50%AC/45%H2O/5%HCl; for RF, Methanol/Water/Hydrochloric acid (conc.), mobile phase VII: VII = 60%MeOH/35%H2O/5%HCl; for RF, Acetone/Water/Hydrochloric acid (conc.), mobile phase VIII: VIII = 45%AC/50%H2O/5%HCl; for RF, Methanol/Water/Hydrochloric acid (conc.), mobile phase VIII: VIII = 55%MeOH/40%H2O/5%HCl
In short: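 Lipophilicity from RP-TLC retention at 22±2 °C over a 4.5 cm development distance. Eluents: organic modifier (methanol, acetone or dioxane), water and hydrochloric acid, methanol stepped by 10%. RM0 obtained from RF.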

purified human BChE [5] = molecular target: T1, purified human BChE; design: method as in PMID 31600664; conditions: previously tested derivative 2 (CQAd); ref [38]; cited from earlier work
[6] = logarithm of Ki in µM, BChE, dependent variable of the QSAR model, read-out: Y Measured 2 log(ki)Bche, log (Ki/µM BChE) (converted)
[7] = Acetone/Water/Hydrochloric acid (conc.)
[8] = Dioxane/Water/Hydrochloric acid (conc.)
[9] = Methanol/Water/Hydrochloric acid (conc.)
[10] = ± standard error, 25 °C, ATCh substrate, read-out: Ki BChE
[11] = log (Ki/µM AChE), read-out: Y Measured 1 log(ki)Ache (converted)
[12] = ± standard error, 25 °C, ATCh substrate, read-out: Ki AChE

T1 sequence (P06276 29-602): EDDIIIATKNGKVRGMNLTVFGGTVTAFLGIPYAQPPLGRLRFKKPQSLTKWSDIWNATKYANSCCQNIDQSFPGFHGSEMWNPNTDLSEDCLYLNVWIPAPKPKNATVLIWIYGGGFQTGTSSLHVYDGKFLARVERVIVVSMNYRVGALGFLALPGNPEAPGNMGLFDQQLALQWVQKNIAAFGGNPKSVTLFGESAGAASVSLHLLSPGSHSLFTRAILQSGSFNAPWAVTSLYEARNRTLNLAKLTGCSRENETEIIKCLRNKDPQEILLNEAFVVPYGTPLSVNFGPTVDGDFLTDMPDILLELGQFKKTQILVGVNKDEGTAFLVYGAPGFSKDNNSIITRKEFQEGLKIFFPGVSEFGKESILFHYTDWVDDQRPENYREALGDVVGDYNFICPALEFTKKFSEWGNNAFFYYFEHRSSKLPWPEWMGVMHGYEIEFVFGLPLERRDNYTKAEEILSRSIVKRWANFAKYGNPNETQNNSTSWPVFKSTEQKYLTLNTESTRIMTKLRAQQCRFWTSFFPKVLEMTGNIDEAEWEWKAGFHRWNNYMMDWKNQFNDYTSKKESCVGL
T2 sequence (P22303 32-614): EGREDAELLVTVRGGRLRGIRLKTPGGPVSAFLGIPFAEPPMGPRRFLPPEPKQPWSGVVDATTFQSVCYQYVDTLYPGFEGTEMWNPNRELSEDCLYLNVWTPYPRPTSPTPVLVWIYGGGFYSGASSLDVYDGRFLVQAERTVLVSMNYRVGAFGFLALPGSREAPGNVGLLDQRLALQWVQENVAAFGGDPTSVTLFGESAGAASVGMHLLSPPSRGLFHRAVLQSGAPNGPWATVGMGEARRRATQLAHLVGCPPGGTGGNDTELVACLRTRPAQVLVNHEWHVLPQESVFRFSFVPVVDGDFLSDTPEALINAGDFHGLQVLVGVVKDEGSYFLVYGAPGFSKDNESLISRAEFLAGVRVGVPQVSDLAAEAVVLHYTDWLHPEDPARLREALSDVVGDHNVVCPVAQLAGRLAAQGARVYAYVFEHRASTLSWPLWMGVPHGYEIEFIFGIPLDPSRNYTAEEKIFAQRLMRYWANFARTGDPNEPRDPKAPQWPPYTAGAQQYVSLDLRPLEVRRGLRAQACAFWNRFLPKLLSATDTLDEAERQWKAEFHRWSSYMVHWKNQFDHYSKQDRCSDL

Oc1ccc(Cl)cc1Cl [2,4-dihlorfenol]
pKa1 [1]: 7.89

Oc1cccc2ccccc12 [Compound 1-naftol]
pKa1 [1]: 9.34

Clc1ccc2c(NCCCNCC34CC5CC(CC(C5)C3)C4)ccnc2c1 [Compound 2]
less potent inhibitors of BChE than compounds 3 or 4 (purified human BChE [2]): about 3.2 times | Ki (purified human BChE [2]; [6]): 3.2 µM | IS (recombinant human AChE): 4.2 | Y Measured 1 log(ki)Ache (recombinant human AChE; log (Ki/µM AChE)): -1.14E-01 | FRAP ([3]; 10 µM compound): 19 ± 2 µM | FRAP ([3]; 100 µM compound): 64 ± 5 µM | RM0 [4, 7]: 1.795 | b [4, 7]: 2.949 | RM0 [4, 8]: 0.8129 | b [4, 8]: 1.796 | RM0 [4, 9]: 2.34 | b [4, 9]: 3.123 | RF, Methanol/Water/Hydrochloric acid (conc.), mobile phase I [4]: 0.73 | RF, Dioxane/Water/Hydrochloric acid (conc.), mobile phase II [4]: 0.78 | RF, Methanol/Water/Hydrochloric acid (conc.), mobile phase II [4]: 0.67 | RF, Acetone/Water/Hydrochloric acid (conc.), mobile phase III [4]: 0.61 | RF, Dioxane/Water/Hydrochloric acid (conc.), mobile phase III [4]: 0.73 | RF, Methanol/Water/Hydrochloric acid (conc.), mobile phase III [4]: 0.52 | RF, Dioxane/Water/Hydrochloric acid (conc.), mobile phase IV [4]: 0.73 | RF, Acetone/Water/Hydrochloric acid (conc.), mobile phase IV [4]: 0.58 | RF, Methanol/Water/Hydrochloric acid (conc.), mobile phase IV [4]: 0.53 | RF, Acetone/Water/Hydrochloric acid (conc.), mobile phase IX [4]: 0.15 | RF, Methanol/Water/Hydrochloric acid (conc.), mobile phase IX [4]: 0.11 | RF, Dioxane/Water/Hydrochloric acid (conc.), mobile phase V [4]: 0.55 | RF, Acetone/Water/Hydrochloric acid (conc.), mobile phase V [4]: 0.5 | RF, Methanol/Water/Hydrochloric acid (conc.), mobile phase V [4]: 0.47 | RF, Dioxane/Water/Hydrochloric acid (conc.), mobile phase VI [4]: 0.4 | RF, Acetone/Water/Hydrochloric acid (conc.), mobile phase VI [4]: 0.41 | RF, Methanol/Water/Hydrochloric acid (conc.), mobile phase VI [4]: 0.43 | RF, Acetone/Water/Hydrochloric acid (conc.), mobile phase VII [4]: 0.35 | RF, Methanol/Water/Hydrochloric acid (conc.), mobile phase VII [4]: 0.25 | RF, Acetone/Water/Hydrochloric acid (conc.), mobile phase VIII [4]: 0.3 | RF, Methanol/Water/Hydrochloric acid (conc.), mobile phase VIII [4]: 0.19 | Ki (purified human BChE [5]): 3200 ± 400 nM

Clc1ccc2c(NCCCN3CCN(CCCNCC45CC6CC(CC(C6)C4)C5)CC3)ccnc2c1 [Compound 22]
Ki (purified human BChE [2]; [6]): 3.3 µM | Ki (purified human BChE [2]; [10]): 3.3 ± 0.2 µM | IS (recombinant human AChE): 4.8 | Ki (recombinant human AChE; [11]): 0.69 µM | Ki (recombinant human AChE; [12]): 0.69 ± 0.02 µM | FRAP ([3]; 10 µM compound): 11 ± 3 µM | FRAP ([3]; 100 µM compound): 34 ± 8 µM | RM0 [4, 7]: 1.4989 | b [4, 7]: 2.763 | RM0 [4, 8]: 0.5478 | b [4, 8]: 1.493 | RM0 [4, 9]: 1.56 | b [4, 9]: 2.199 | RF, Methanol/Water/Hydrochloric acid (conc.), mobile phase I [4]: 0.67 | RF, Dioxane/Water/Hydrochloric acid (conc.), mobile phase II [4]: 0.78 | RF, Methanol/Water/Hydrochloric acid (conc.), mobile phase II [4]: 0.7 | RF, Acetone/Water/Hydrochloric acid (conc.), mobile phase III [4]: 0.71 | RF, Dioxane/Water/Hydrochloric acid (conc.), mobile phase III [4]: 0.76 | RF, Methanol/Water/Hydrochloric acid (conc.), mobile phase III [4]: 0.6 | RF, Dioxane/Water/Hydrochloric acid (conc.), mobile phase IV [4]: 0.78 | RF, Acetone/Water/Hydrochloric acid (conc.), mobile phase IV [4]: 0.68 | RF, Methanol/Water/Hydrochloric acid (conc.), mobile phase IV [4]: 0.59 | RF, Acetone/Water/Hydrochloric acid (conc.), mobile phase IX [4]: 0.28 | RF, Methanol/Water/Hydrochloric acid (conc.), mobile phase IX [4]: 0.22 | RF, Dioxane/Water/Hydrochloric acid (conc.), mobile phase V [4]: 0.6 | RF, Acetone/Water/Hydrochloric acid (conc.), mobile phase V [4]: 0.61 | RF, Methanol/Water/Hydrochloric acid (conc.), mobile phase V [4]: 0.5 | RF, Dioxane/Water/Hydrochloric acid (conc.), mobile phase VI [4]: 0.48 | RF, Acetone/Water/Hydrochloric acid (conc.), mobile phase VI [4]: 0.51 | RF, Methanol/Water/Hydrochloric acid (conc.), mobile phase VI [4]: 0.45 | RF, Acetone/Water/Hydrochloric acid (conc.), mobile phase VII [4]: 0.43 | RF, Methanol/Water/Hydrochloric acid (conc.), mobile phase VII [4]: 0.38 | RF, Acetone/Water/Hydrochloric acid (conc.), mobile phase VIII [4]: 0.36 | RF, Methanol/Water/Hydrochloric acid (conc.), mobile phase VIII [4]: 0.31

Clc1ccc2c(NCCCN3CCN(CCCNCCC45CC6CC(CC(C6)C4)C5)CC3)ccnc2c1 [Compound 23]
Ki (purified human BChE [2]; [6]): 1.8 µM | Ki (purified human BChE [2]; [10]): 1.8 ± 0.2 µM | IS (recombinant human AChE): 4.1 | Ki (recombinant human AChE; [11]): 0.44 µM | Ki (recombinant human AChE; [12]): 0.44 ± 0.09 µM | FRAP ([3]; 10 µM compound): 1.4 ± 0.1 µM | FRAP ([3]; 100 µM compound): 20 ± 5 µM | RM0 [4, 7]: 1.784 | b [4, 7]: 2.934 | RM0 [4, 8]: 0.7935 | b [4, 8]: 1.661 | RM0 [4, 9]: 2.211 | b [4, 9]: 2.892 | RF, Methanol/Water/Hydrochloric acid (conc.), mobile phase I [4]: 0.64 | RF, Dioxane/Water/Hydrochloric acid (conc.), mobile phase II [4]: 0.73 | RF, Methanol/Water/Hydrochloric acid (conc.), mobile phase II [4]: 0.66 | RF, Acetone/Water/Hydrochloric acid (conc.), mobile phase III [4]: 0.62 | RF, Dioxane/Water/Hydrochloric acid (conc.), mobile phase III [4]: 0.71 | RF, Methanol/Water/Hydrochloric acid (conc.), mobile phase III [4]: 0.54 | RF, Dioxane/Water/Hydrochloric acid (conc.), mobile phase IV [4]: 0.71 | RF, Acetone/Water/Hydrochloric acid (conc.), mobile phase IV [4]: 0.58 | RF, Methanol/Water/Hydrochloric acid (conc.), mobile phase IV [4]: 0.53 | RF, Acetone/Water/Hydrochloric acid (conc.), mobile phase IX [4]: 0.15 | RF, Methanol/Water/Hydrochloric acid (conc.), mobile phase IX [4]: 0.12 | RF, Dioxane/Water/Hydrochloric acid (conc.), mobile phase V [4]: 0.51 | RF, Acetone/Water/Hydrochloric acid (conc.), mobile phase V [4]: 0.48 | RF, Methanol/Water/Hydrochloric acid (conc.), mobile phase V [4]: 0.44 | RF, Dioxane/Water/Hydrochloric acid (conc.), mobile phase VI [4]: 0.38 | RF, Acetone/Water/Hydrochloric acid (conc.), mobile phase VI [4]: 0.42 | RF, Methanol/Water/Hydrochloric acid (conc.), mobile phase VI [4]: 0.37 | RF, Acetone/Water/Hydrochloric acid (conc.), mobile phase VII [4]: 0.35 | RF, Methanol/Water/Hydrochloric acid (conc.), mobile phase VII [4]: 0.25 | RF, Acetone/Water/Hydrochloric acid (conc.), mobile phase VIII [4]: 0.31 | RF, Methanol/Water/Hydrochloric acid (conc.), mobile phase VIII [4]: 0.18

c1ccc2cc3ccccc3cc2c1 [antracen]
logP [1]: 4.45

c1ccc2c(c1)ccc1ccccc12 [fenantren]
logP [1]: 4.46

c1ccc2c(c1)Cc1ccccc1-2 [fluoren]
logP [1]: 4.18

O=C1CN=C(c2ccccc2Cl)c2cc([N+](=O)[O-])ccc2N1 [klonazepam]
logP [1]: 2.41 | pKa1 [1]: 10.5 | pKa2 [1]: 1.5
